# Assay results reported in PMC9230136 (Pharmaceutics, 2022).
# “Also recorded” adds a separate entry of the source. Where two headings read alike, the source gives them in different places.
# Legend:
# [1] = tested on: Bovine brain tubulin; assay: Inhibition of tubulin polymerization; assay type: biochemical
# Procedure, shortened: (§1)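 Polymerization: 10 μM tubulin preincubated with compound in 0.8 M monosodium glutamate (pH 6.6) at 30 °C, chilled to 0 °C, GTP added, rewarmed to 30 °C; assembly followed by turbidity. Colchicine binding: 0.5 μM tubulin with 5 μM each [3H]colchicine and test compound, bound label collected on a DEAE-cellulose filter.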
# [2] = tested on: Bovine brain tubulin; assay: Inhibition of [3H]colchicine binding to tubulin; settings: tubulin 0.5 µM, [3H]colchicine 5 µM, compound 5 µM
# Procedure, shortened: as §1
# [3] = tested on: HeLa cells in zebrafish Tg(fli1: EGFP) embryos; assay: Zebrafish xenograft model with HeLa cells; assay type: in vivo, Danio rerio; settings: 145 or 290 nM, 24 h, 34 °C; p 0.04 and 0.01
# Experimental: For the transplantation, zebrafish Tg(fli1: EGFP) embryos expressing enhanced green fluorescent protein (EGFP) specifically in vascular endothelial cells, were kept at 28 °C and manually dechorionated. Before microinjections into zebrafish embryos, HeLa cancer cells were stained with VybrantTM DiI Cell-Labeling Solution (Invitrogen, ThermoFisher, Carlsbad, CA, USA) according to the manufacturer’s protocol, in order to visualize and track them inside the larvae. Stained cells (1.0 × 10^6 cells) were suspended in 20 μL of PBS 1X obtaining a final concentration of 50 cells/nL; next, the cellular suspension was loaded into borosilicate glass capillary needles (OD/ID: 1.00/0.75 mm, World Precision Instruments, Sarasota, FL, USA). […]
# Initially (time 0 h pre-treatment) and after one day post-treatment, the tumors were photographed with a Zeiss AxioObserver microscope for live-cell imaging. HeLa cell fluorescence was recorded to investigate reduction, death and migration of tumor cells. Using Fiji ImageJ software, the reduction in cancer cell fluorescence, related to the effectiveness of the anticancer drug treatments, was calculated and plotted. The fluorescence of at least 20 identically treated embryos was compared to vehicle control set to 100%.
structure (smiles),measurement,setting,value
Cc1cc(Nc2ccc(F)cc2)n2nc(NCCCc3ccccc3)nc2n1 [Compound 8q],"fold more potent than CA-4, tubulin polymerization",[1],about 2 fold
same,IC50,[1]; read-out: IC50 tubulin polymerization,520 nM
same,IC50,"[1]; tubulin at 10 μM, read-out: Tubulin Assembly IC50 ± SD",390 ± 20 nM
same,Colchicine Binding % Inhibition ± SD,[2],88 ± 0.8%
same,HeLa tumor cells / fluorescence in zebrafish xenograft,[3],significantly inhibited HeLa cell growth in zebrafish embryos; also recorded: number of circulating tumor cells was significantly reduced; also recorded: fluorescence intensity decreased in a dose-dependent manner; also recorded: reduced HeLa cell growth in xenografts implanted in zebrafish embryos
